Test results: patent US11970497B2, “Tricyclic AKR1C3 dependent KARS inhibitors” (Novartis AG, priority 2019, dated 2024)

Experiments:
[1] = system: H460 (NRF2 pathway mutant cell line with high AKR1C3 expression); assay: In vitro cell proliferation assay (CellTiter-Glo), H460; assay type: cell-based; settings: Homo sapiens, NCI-H460, 72 h; H460 cells, 3 days, CellTiter-Glo, top concentration 10 μM; read-out: H460 Qualified absolute AC50
From the text: (§1) Cellular Proliferation Assay to Assess Compounds Activity in H460 (NRF2 Pathway Mutant Cell Line with High AKR1C3 Expression) and Hara (NRF2 Pathway Wild Type Cell Line with Low AKR1C3 Expression).
(§2) The cell lines A549 and H460 are NRF2 pathway mutant and specifically contain genetic alterations in KEAP1 (A549: G333C, H460: D236H) (Singh A. et al., 2006 PLoS Medicine 3(10) e420). In these cell lines the NRF2 pathway is constitutively active and these cells express high levels of NRF2 protein and NRF2 pathway target gene AKR1C3. […] They have low AKR1C3 expression.
(§3) In Vitro Cell Proliferation Assay
(§4) Day 1, for H460 800 cells/well or 40 μL of 2×10^4 cells/mL and for Hara 2000 cells/well or 40 μL of 5×10^4 cells/mL medium (RPMI-1640 supplemented with 10% fetal bovine serum and 1% penicillin/streptomycin) were seeded into 384-well tissue culture plates. Day 2, compounds were serially diluted 1:5 to generate 8 point dose response curves and added to cells for a final top concentration of 10 μM. DMSO (1%) control and MG132 (30 μM) controls are added in columns 23 and 24 respectively on each plate for positive and negative control. After incubation for 3 days at 37° C./5% CO2, 30 μl of CellTiter-Glo reagent (Promega) was added and the plates were incubated for 10 min on plate shaker. The amount of luminescence was determined using a Perkin Elmer Envision plate reader. CellTiter-Glo luminescence values of cells treated with DMSO and MG132 controls were used to normalize the data and calculate percentage activity and AC50s of compounds using the Helios Software suite.

[2] = system: Hara (NRF2 pathway wild type cell line with low AKR1C3 expression); assay: In vitro cell proliferation assay (CellTiter-Glo), Hara; assay type: cell-based; settings: 72 h; Hara cells, 3 days, CellTiter-Glo, top concentration 10 μM; read-out: HARA Qualified absolute AC50
From the text: as §1, §2, §3, §4

SMILES | AC50 [1] | AC50 [2]
COc1cc(F)ccc1CNC(=O)N1CCC2(CC1)CC(O)c1cc(F)ccc1N2 (racemic) [Example 168, 6′-fluoro-N-(4-fluoro-2-methoxybenzyl)-4′-hydroxy-3′,4′-dihydro-1′H-spiro[piperidine-4,2′-quinoline]-1-carboxamide] | 41 nM | 49 nM
CN1c2ccc(F)cc2[C@@H](O)CC12CCN(C(=O)NCc1ccc(F)cc1)CC2 (single isomer, unassigned) [Example 151b] | 3400 nM | 6070 nM
O=C(NCc1ccc(F)cc1O)N1CCC2(CC1)C[C@H](O)c1cc(F)ccc1N2 (single isomer, unassigned) [Example 154b] | 464 nM | 749 nM
COc1cc(F)ccc1CNC(=O)N1CCC2(CC1)CC(=O)c1cc(F)ccc1N2C [Example 2, 6′-fluoro-N-(4-fluoro-2-methoxybenzyl)-1′-methyl-4′-oxo-3′,4′-dihydro-1′H-spiro[piperidine-4,2′-quinoline]-1-carboxamide] | 5 nM | > 10000 nM
CN1c2ccc(F)cc2C(=O)CC12CCN(C(=O)NCc1ccc(F)c(OCCO)c1)CC2 [Example 3, 6′-fluoro-N-(4-fluoro-3-(2-hydroxyethoxy)benzyl)-1′-methyl-4′-oxo-3′,4′-dihydro-1′H-spiro[piperidine-4,2′-quinoline]-1-carboxamide] | 5 nM | 1760 nM
CN1c2ccc(F)cc2C(=O)CC12CCN(C(=O)NCc1ccc(F)cc1F)CC2 [Example 5, N-(2,4-difluorobenzyl)-6′-fluoro-1′-methyl-4′-oxo-3′,4′-dihydro-1′H-spiro[piperidine-4,2′-quinoline]-1-carboxamide] | 8 nM | > 10000 nM
CCN1c2ccc(F)cc2C(=O)CC12CCN(C(=O)NCc1ccc(F)cc1)CC2 [Example 6, 1′-ethyl-6′-fluoro-N-(4-fluorobenzyl)-4′-oxo-3′,4′-dihydro-1′H-spiro[piperidine-4,2′-quinoline]-1-carboxamide] | 9 nM | > 10000 nM
COc1cc(CNC(=O)N2CCC3(CC2)CC(=O)c2cc(F)ccc2N3C)ccc1F [Example 8, 6′-fluoro-N-(4-fluoro-3-methoxybenzyl)-1′-methyl-4′-oxo-3′,4′-dihydro-1′H-spiro[piperidine-4,2′-quinoline]-1-carboxamide] | 15 nM | > 10000 nM
Cc1occc1CNC(=O)N1CCC2(CC1)CC(=O)c1cc(F)cc(F)c1N2 [Example 10, 6′,8′-difluoro-N-((2-methylfuran-3-yl)methyl)-4′-oxo-3′,4′-dihydro-1′H-spiro[piperidine-4,2′-quinoline]-1-carboxamide] | 21 nM | 5410 nM
NC(=O)c1cc(CNC(=O)N2CCC3(CC2)CC(=O)c2cc(F)cc(F)c2N3)ccc1F [Example 11, N-(3-carbamoyl-4-fluorobenzyl)-6′,8′-difluoro-4′-oxo-3′,4′-dihydro-1′H-spiro[piperidine-4,2′-quinoline]-1-carboxamide] | 23 nM | > 10000 nM
[2H]C([2H])(NC(=O)N1CCC2(CC1)CC(=O)c1cc(F)ccc1N2)c1ccc(F)cc1 [Example 12, 6′-fluoro-N-((4-fluorophenyl)methyl-d2)-4′-oxo-3′,4′-dihydro-1′H-spiro[piperidine-4,2′-quinoline]-1-carboxamide] | 24 nM | > 10000 nM
Cc1occc1CNC(=O)N1CCC2(CC1)CC(=O)c1cc(F)ccc1N2 [Example 59, 6′-fluoro-N-((2-methylfuran-3-yl)methyl)-4′-oxo-3′,4′-dihydro-1′H-spiro[piperidine-4,2′-quinoline]-1-carboxamide] | 185 nM | 
O=C(NC1CC(O)C1)c1cc(CNC(=O)N2CCC3(CC2)CC(=O)c2cc(F)ccc2N3)ccc1F (stereo not drawn) [Example 60, 6′-fluoro-N-(4-fluoro-3-((3-hydroxycyclobutyl)carbamoyl)benzyl)-4′-oxo-3′,4′-dihydro-1′H-spiro[piperidine-4,2′-quinoline]-1-carboxamide] | 198 nM | 
Cc1cc(CNC(=O)N2CCC3(CC2)CC(=O)c2cc(F)ccc2N3)n[nH]1 [Example 72, 6′-fluoro-N-((5-methyl-1H-pyrazol-3-yl)methyl)-4′-oxo-3′,4′-dihydro-1′H-spiro[piperidine-4,2′-quinoline]-1-carboxamide] | 282 nM | 
Cc1c(CNC(=O)N2CCC3(CC2)CC(=O)c2cc(F)ccc2N3)ccc(F)c1C(N)=O [Example 79, N-(3-carbamoyl-4-fluoro-2-methylbenzyl)-6′-fluoro-4′-oxo-3′,4′-dihydro-1′H-spiro[piperidine-4,2′-quinoline]-1-carboxamide] | 345 nM | 
CN(C)CCNC(=O)c1cc(CNC(=O)N2CCC3(CC2)CC(=O)c2cc(F)ccc2N3)ccc1F [Example 81, N-(3-((2-(dimethylamino)ethyl)carbamoyl)-4-fluorobenzyl)-6′-fluoro-4′-oxo-3′,4′-dihydro-1′H-spiro[piperidine-4,2′-quinoline]-1-carboxamide] | 352 nM | 
CN1c2ccc(F)cc2C(=O)CC12CCN(C(=O)NCc1ccc(F)c(NCCN3CCCC3=O)c1)CC2 [Example 90, 6′-fluoro-N-(4-fluoro-3-((2-(2-oxopyrrolidin-1-yl)ethyl)amino)benzyl)-1′-methyl-4′-oxo-3′,4′-dihydro-1′H-spiro[piperidine-4,2′-quinoline]-1-carboxamide] | 443 nM | 
O=C1CC2(CCN(C(=O)NCc3ccoc3C(F)(F)F)CC2)Nc2ccc(F)cc21 [Example 96, 6′-fluoro-4′-oxo-N-((2-(trifluoromethyl)furan-3-yl)methyl)-3′,4′-dihydro-1′H-spiro[piperidine-4,2′-quinoline]-1-carboxamide] | 489 nM | 
CN1c2ccc(F)cc2C(=O)CC12CCN(C(=O)NCc1ccc(F)c(C(=O)NCC(C)(C)O)c1)CC2 [Example 97, 6′-fluoro-N-(4-fluoro-3-((2-hydroxy-2-methylpropyl)carbamoyl)benzyl)-1′-methyl-4′-oxo-3′,4′-dihydro-1′H-spiro[piperidine-4,2′-quinoline]-1-carboxamide] | 491 nM | 
O=C(NCC(=O)C1CC1)c1cc(CNC(=O)N2CCC3(CC2)CC(=O)c2cc(F)ccc2N3)ccc1F [Example 100, N-(3-((2-cyclopropyl-2-oxoethyl)carbamoyl)-4-fluorobenzyl)-6′-fluoro-4′-oxo-3′,4′-dihydro-1′H-spiro[piperidine-4,2′-quinoline]-1-carboxamide] | 518 nM | 
CCc1noc(C)c1CNC(=O)N1CCC2(CC1)CC(=O)c1cc(F)ccc1N2 [Example 106, N-((3-ethyl-5-methylisoxazol-4-yl)methyl)-6′-fluoro-4′-oxo-3′,4′-dihydro-1′H-spiro[piperidine-4,2′-quinoline]-1-carboxamide] | 598 nM | 
Cc1cc(CNC(=O)N2CCC3(CC2)CC(=O)c2cc(F)ccc2N3)c(C)o1 [Example 110, N-((2,5-dimethylfuran-3-yl)methyl)-6′-fluoro-4′-oxo-3′,4′-dihydro-1′H-spiro[piperidine-4,2′-quinoline]-1-carboxamide] | 700 nM | 
CN1c2ccc(F)cc2C(=O)CC12CCN(C(=O)NCc1ccc(F)c(NCC(C)(C)C(=O)N3CCOCC3)c1)CC2 [Example 113] | 846 nM | 
Cc1ncc(CNC(=O)c2cc(CNC(=O)N3CCC4(CC3)CC(=O)c3cc(F)ccc3N4)ccc2F)o1 [Example 121, 6′-fluoro-N-(4-fluoro-3-(((2-methyloxazol-5-yl)methyl)carbamoyl)benzyl)-4′-oxo-3′,4′-dihydro-1′H-spiro[piperidine-4,2′-quinoline]-1-carboxamide] | 1080 nM | 
O=C(NC/C=C/CO)c1cc(CNC(=O)N2CCC3(CC2)CC(=O)c2cc(F)ccc2N3)ccc1F [Example 122, (E)-6′-fluoro-N-(4-fluoro-3-((4-hydroxybut-2-en-1-yl)carbamoyl)benzyl)-4′-oxo-3′,4′-dihydro-1′H-spiro[piperidine-4,2′-quinoline]-1-carboxamide] | 1110 nM | 
Cc1cc(CNC(=O)N2CCC3(CC2)CC(=O)c2cc(F)ccc2N3)c(C(F)(F)F)o1 [Example 127, 6′-fluoro-N-((5-methyl-2-(trifluoromethyl)furan-3-yl)methyl)-4′-oxo-3′,4′-dihydro-1′H-spiro[piperidine-4,2′-quinoline]-1-carboxamide] | 1430 nM | 
C#CCNC(=O)c1cc(CNC(=O)N2CCC3(CC2)CC(=O)c2cc(F)ccc2N3)ccc1F [Example 128, 6′-fluoro-N-(4-fluoro-3-(prop-2-yn-1-ylcarbamoyl)benzyl)-4′-oxo-3′,4′-dihydro-1′H-spiro[piperidine-4,2′-quinoline]-1-carboxamide] | 1480 nM | 
CN1c2ccc(F)cc2C(=O)CC12CCN(C(=O)NCc1ccc(F)c(NCCC(=O)O)c1)CC2 [Example 148, 3-((2-fluoro-5-((6′-fluoro-1′-methyl-4′-oxo-3′,4′-dihydro-1′H-spiro[piperidine-4,2′-quinoline]-1-carboxamido)methyl)phenyl)amino)propanoic acid] | 4930 nM | 
